Source: the supplement of paper PMC10307832

Assays:
Assay in all cases: relative viability (nuclei count vs DMSO), 5 days (fraction); higher = more cells survive
NCI-H647 = system: NCI-H647
Method in brief: (§1)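 Medians of duplicate plates are given as relative viability. That measure is the nuclei count in treated wells divided by the count in vehicle wells. Counts were taken on 4× images of lung cancer cell lines in 1536-well plates, 5 days after pin-tool dosing the day after seeding with one drug alone or a fixed anchor-drug dose plus five library-drug doses (not always all listed) in √10 steps.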

NCI-H358 = system: NCI-H358
Method in brief: as §1

NCI-H2347 = system: NCI-H2347
Method in brief: as §1

SW 1573 = system: SW 1573
Method in brief: as §1

HCC-15 = system: HCC-15
Method in brief: as §1

NCI-H460 = system: NCI-H460
Method in brief: as §1

NCI-H1755 = system: NCI-H1755
Method in brief: as §1

NCI-H2126 = system: NCI-H2126
Method in brief: as §1

NCI-H2342 = system: NCI-H2342
Method in brief: as §1

A-427 = system: A-427
Method in brief: as §1

HOP-62 = system: HOP-62
Method in brief: as §1

NCI-H2228 = system: NCI-H2228
Method in brief: as §1

LXF-289 = system: LXF-289
Method in brief: as §1

NCI-H522 = system: NCI-H522
Method in brief: as §1

NCI-H1792 = system: NCI-H1792
Method in brief: as §1

LC-2-ad = system: LC-2-ad
Method in brief: as §1

RERF-LC-KJ = system: RERF-LC-KJ
Method in brief: as §1

NCI-H1975 = system: NCI-H1975
Method in brief: as §1

PC-3 [JPC-3] = system: PC-3 [JPC-3]
Method in brief: as §1

NCI-H1915 = system: NCI-H1915
Method in brief: as §1

SK-LU-1 = system: SK-LU-1
Method in brief: as §1

NCI-H1734 = system: NCI-H1734
Method in brief: as §1

LOU-NH91 = system: LOU-NH91
Method in brief: as §1

HCC-78 = system: HCC-78
Method in brief: as §1

In the case of C[C@@H]1CN(CC(=O)Nc2ccc3c(c2)Cc2cccc(-c4cc(=O)cc(N5CCOCC5)o4)c2S3)C[C@H](C)O1 + COc1cccc2cc(-c3nc([C@H]4CC[C@H](C(=O)O)CC4)n4ncnc(N)c34)[nH]c12 [OSI-027] (partner 0.5 µM), the relative viability (NCI-H647; first compound 0.04 µM) is reported as 0.519, the relative viability (NCI-H647; first compound 0.1265 µM) is reported as 0.669 and the relative viability (NCI-H647; first compound 0.4 µM) is reported as 0.497. It also gave a relative viability (NCI-H647; first compound 4 µM) of 0.558, a relative viability (NCI-H358; first compound 0.04 µM) of 0.679 and a relative viability (NCI-H358; first compound 0.1265 µM) of 0.673. For the same molecule, the relative viability (NCI-H358; first compound 0.4 µM) was 0.852, the relative viability (NCI-H358; first compound 4 µM) was 0.418 and the relative viability (NCI-H2347; first compound 0.04 µM) was 0.465. The relative viability (NCI-H2347; first compound 0.1265 µM) was 0.417, the relative viability (NCI-H2347; first compound 0.4 µM) was 0.415 and the relative viability (NCI-H2347; first compound 4 µM) was 0.4. It also gave a relative viability (SW 1573; first compound 0.04 µM) of 0.796, a relative viability (SW 1573; first compound 0.1265 µM) of 0.72 and a relative viability (SW 1573; first compound 0.4 µM) of 0.465. It also gave a relative viability (SW 1573; first compound 4 µM) of 0.604, a relative viability (HCC-15; first compound 0.04 µM) of 0.76 and a relative viability (HCC-15; first compound 0.1265 µM) of 0.606. For the same molecule, the relative viability (HCC-15; first compound 0.4 µM) was 0.485, the relative viability (HCC-15; first compound 4 µM) was 0.524 and the relative viability (NCI-H460; first compound 0.04 µM) was 0.662. It also gave a relative viability (NCI-H460; first compound 0.1265 µM) of 0.674, a relative viability (NCI-H460; first compound 0.4 µM) of 0.587 and a relative viability (NCI-H460; first compound 4 µM) of 0.253. It also gave a relative viability (NCI-H1755; first compound 0.04 µM) of 0.697, a relative viability (NCI-H1755; first compound 0.1265 µM) of 0.651 and a relative viability (NCI-H1755; first compound 0.4 µM) of 0.668. The relative viability (NCI-H1755; first compound 4 µM) was 0.578, the relative viability (NCI-H2126; first compound 0.04 µM) was 0.708 and the relative viability (NCI-H2126; first compound 0.1265 µM) was 0.579. The relative viability (NCI-H2126; first compound 0.4 µM) was 0.677, the relative viability (NCI-H2126; first compound 4 µM) was 0.647 and the relative viability (NCI-H2342; first compound 0.04 µM) was 0.647. For the same molecule, the relative viability (NCI-H2342; first compound 0.1265 µM) was 0.506, the relative viability (NCI-H2342; first compound 0.4 µM) was 0.52 and the relative viability (NCI-H2342; first compound 4 µM) was 0.58. The relative viability (A-427; first compound 0.04 µM) was 0.501, the relative viability (A-427; first compound 0.1265 µM) was 0.53 and the relative viability (A-427; first compound 0.4 µM) was 0.482. For the same molecule, the relative viability (A-427; first compound 4 µM) was 0.575, the relative viability (HOP-62; first compound 0.04 µM) was 0.828 and the relative viability (HOP-62; first compound 0.1265 µM) was 0.797. The relative viability (HOP-62; first compound 0.4 µM) was 0.763, the relative viability (HOP-62; first compound 4 µM) was 0.881 and the relative viability (NCI-H2228; first compound 0.04 µM) was 0.659. For the same molecule, the relative viability (NCI-H2228; first compound 0.1265 µM) was 0.705, the relative viability (NCI-H2228; first compound 0.4 µM) was 0.483 and the relative viability (NCI-H2228; first compound 4 µM) was 0.335. It also gave a relative viability (LXF-289; first compound 0.04 µM) of 0.779, a relative viability (LXF-289; first compound 0.1265 µM) of 0.829 and a relative viability (LXF-289; first compound 0.4 µM) of 0.86. For the same molecule, the relative viability (LXF-289; first compound 4 µM) was 0.777, the relative viability (NCI-H522; first compound 0.04 µM) was 0.706 and the relative viability (NCI-H522; first compound 0.1265 µM) was 0.679. It also gave a relative viability (NCI-H522; first compound 0.4 µM) of 0.742, a relative viability (NCI-H522; first compound 4 µM) of 0.735 and a relative viability (NCI-H1792; first compound 0.04 µM) of 0.692. For the same molecule, the relative viability (NCI-H1792; first compound 0.1265 µM) was 0.639, the relative viability (NCI-H1792; first compound 0.4 µM) was 0.633 and the relative viability (NCI-H1792; first compound 4 µM) was 0.458. For the same molecule, the relative viability (LC-2-ad; first compound 0.04 µM) was 0.984, the relative viability (LC-2-ad; first compound 0.1265 µM) was 0.923 and the relative viability (LC-2-ad; first compound 0.4 µM) was 0.649. It also gave a relative viability (LC-2-ad; first compound 4 µM) of 0.656, a relative viability (RERF-LC-KJ; first compound 0.04 µM) of 0.757 and a relative viability (RERF-LC-KJ; first compound 0.1265 µM) of 0.583. The relative viability (RERF-LC-KJ; first compound 0.4 µM) was 0.534, the relative viability (RERF-LC-KJ; first compound 4 µM) was 0.49 and the relative viability (NCI-H1975; first compound 0.04 µM) was 0.74. For the same molecule, the relative viability (NCI-H1975; first compound 0.1265 µM) was 0.602, the relative viability (NCI-H1975; first compound 0.4 µM) was 0.608 and the relative viability (NCI-H1975; first compound 4 µM) was 0.448. For the same molecule, the relative viability (PC-3 [JPC-3]; first compound 0.04 µM) was 0.81, the relative viability (PC-3 [JPC-3]; first compound 0.1265 µM) was 0.815 and the relative viability (PC-3 [JPC-3]; first compound 0.4 µM) was 0.66. The relative viability (PC-3 [JPC-3]; first compound 4 µM) was 0.577, the relative viability (NCI-H1915; first compound 0.04 µM) was 0.623 and the relative viability (NCI-H1915; first compound 0.1265 µM) was 0.682. For the same molecule, the relative viability (NCI-H1915; first compound 0.4 µM) was 0.632, the relative viability (NCI-H1915; first compound 4 µM) was 0.497 and the relative viability (SK-LU-1; first compound 0.04 µM) was 0.393. It also gave a relative viability (SK-LU-1; first compound 0.1265 µM) of 0.4, a relative viability (SK-LU-1; first compound 0.4 µM) of 0.386 and a relative viability (SK-LU-1; first compound 4 µM) of 0.237. It also gave a relative viability (NCI-H1734; first compound 0.04 µM) of 0.655, a relative viability (NCI-H1734; first compound 0.1265 µM) of 0.598 and a relative viability (NCI-H1734; first compound 0.4 µM) of 0.48. The relative viability (NCI-H1734; first compound 4 µM) was 0.67, the relative viability (LOU-NH91; first compound 0.04 µM) was 0.746 and the relative viability (LOU-NH91; first compound 0.1265 µM) was 0.711. It also gave a relative viability (LOU-NH91; first compound 0.4 µM) of 0.724, a relative viability (LOU-NH91; first compound 4 µM) of 0.7 and a relative viability (HCC-78; first compound 0.04 µM) of 0.372. It also gave a relative viability (HCC-78; first compound 0.1265 µM) of 0.358, a relative viability (HCC-78; first compound 0.4 µM) of 0.365 and a relative viability (HCC-78; first compound 4 µM) of 0.384.
